The values that follow come from publication PMC5942844, “Identification and characterization of the Fasciola hepatica sodium- and chloride-dependent taurine transporter” (PLoS Neglected Tropical Diseases, 2018).

Series [1] has as its system adult F. hepatica. In kind it is cell-based. The conditions noted are these: for time all flukes alive and motile: Hédon-Fleig medium; for survival of flukes: 4 h. The procedure: Fig 8 Survival of adult F. hepatica in bile acid-containing medium in the presence and absence of taurine. A: Adult flukes (12 flukes/condition in individual wells) were incubated at 37°C and 5% CO2 in a humidified atmosphere in Hédon Feig medium in the absence (control, closed circles) or presence of 50 μM taurine (closed circle), of 2 mM GES (GES, closed triangle) or of bile acids (closed triangle, 5 mM cholic acid, 1.5 mM deoxycholic acid and 0.5 mM chenodeoxycholic acid). The number of dead flukes was recorded at the indicated time points. B: Adult flukes were incubated at 37°C and 5% CO2 in a humidified atmosphere in Hédon Feig medium in the absence (control) or presence of bile acids (5 mM cholic acid, 1.5 mM deoxycholic acid and 0.5 mM chenodeoxycholic acid). Where indicated, the medium contained, in addition, 50 μM taurine or the combination of 50 μM taurine and 2 mM GES (GES) for 4h. The number of dead flukes was recorded at the end of the incubation period. The data are from three independent experiments with 11 to 12 flukes/condition. […] Thus, after Bonferroni correction for multiple testing (with α≤0.016), taurine afforded a statistically significant protection against bile acids.
F. hepatica was isolated from the bile ducts of cows slaughtered at Alpenrind GmbH (Salzburg, Austria). Flukes were kept in modified Hedon Fleig`s solution at 37°C and 5% CO2 in a humidified atmosphere. Before the experiment, flukes were maintained at 37°C for three days after extraction to clear them from bile acids. Living flukes (judged by observing movement after gently tapping them with metal forceps) were transferred into flasks containing either Hedon Fleig`s Solution alone or Hedon Fleig`s Solution supplemented with combinations of bile acids (5 mM cholic acid (CA), 1.5 mM deoxycholic acid (DCA) and […] chenodeoxycholic acid (CDC)), 50 μM taurine and 2 mM guanidinoethyl sulfonate (GES). Survival of flukes was determined again after four hours of treatment.

Series [2] addresses T1, human taurine transporter (HsTauT) (Homo sapiens, UniProt P31641).
T1 sequence (P31641 1-620): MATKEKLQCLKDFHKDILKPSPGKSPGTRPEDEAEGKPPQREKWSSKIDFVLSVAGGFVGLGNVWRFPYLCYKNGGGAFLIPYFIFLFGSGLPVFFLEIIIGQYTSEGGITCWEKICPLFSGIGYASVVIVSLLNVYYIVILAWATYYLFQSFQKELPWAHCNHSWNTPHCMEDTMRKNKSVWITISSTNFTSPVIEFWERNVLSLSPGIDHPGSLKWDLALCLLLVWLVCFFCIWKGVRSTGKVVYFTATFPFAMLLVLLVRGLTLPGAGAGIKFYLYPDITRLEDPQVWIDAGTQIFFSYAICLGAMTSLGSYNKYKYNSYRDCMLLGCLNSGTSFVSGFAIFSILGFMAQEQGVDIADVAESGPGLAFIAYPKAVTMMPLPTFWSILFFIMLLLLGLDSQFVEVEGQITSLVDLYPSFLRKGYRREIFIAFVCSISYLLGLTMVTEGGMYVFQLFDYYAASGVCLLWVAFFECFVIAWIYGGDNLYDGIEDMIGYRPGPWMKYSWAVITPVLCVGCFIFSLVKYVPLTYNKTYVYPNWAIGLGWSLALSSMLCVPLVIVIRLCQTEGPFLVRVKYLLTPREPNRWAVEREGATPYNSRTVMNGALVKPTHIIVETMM
Nature of the series: [3H]taurine uptake by HEK293 cells stably expressing the human taurine transporter. The following applies: for IC50: IC50 of unlabeled taurine for [3H]taurine uptake; for EC50: 0.1 μM [3H]taurine. On the procedure:
(§1) Human embryonic kidney-293 (HEK293 (ATCC CRL-1573, LGC standards Wesel, Germany)) cells, were grown in Dulbecco`s modified Eagle medium (DMEM) supplemented with 10% fetal bovine serum (FCS Nuaille, France), 100 units/ml penicillin and 100 μg/ml streptomycin at 37°C and with 5% CO2 in a humidified incubator. Cells were transfected with plasmids encoding fluorescently tagged or untagged versions of F. hepatica (FhTauT) and H. sapiens (HsTauT) taurine transporter using Jet Prime transfection reagent (Polyplus-transfection, France). To generate monoclonal cell lines stably expressing the transporters, transfected cells were subjected to and selected with the concentration of 0.2 mg/ml geneticin (G418) for 10 days. Surviving cells forming colonies were separated and analyzed for membrane localization of transporters and transport of taurine. After the selection process cells were kept at 50 μg/ml G418 to keep the selection pressure.
(§2) For saturation uptake experiments, cells were plated the day before the experiment at a density of about 50,000 cells/well onto poly (D-lysine)-coated 48-well culture plates (CytoOne, USA). On the day of the experiment, cells were washed with prewarmed Krebs-HEPES buffer twice (KHB) (120 mM NaCl, 3 mM KCl, 2 mM CaCl2, 2 mM MgCl2, 20 mM glucose, 10 mM HEPES, pH 7.3). Then, cells were incubated in KHB containing tracer amounts (0.1 μM) of [^3H]taurine, (19.1 Ci/mmol) (Perkin Elmer, USA) together with increasing concentrations of non-labeled taurine 10 min. The reaction was terminated after 10 minutes by removing the medium followed by rapid rinsing of cells with ice-cold assay buffer. Subsequently, cells were lysed with 0.5 ml of 1% sodium dodecyl sulfate (SDS) and transferred into scintillation vials for liquid scintillation counting. Non-specific uptake was determined by incubating cells in the presence of the blocker β-alanine (100 mM) before and during the experiment and subtracted from uptake values. Data were fit to a Michaelis-Menten equation.
(§3) Chloride-free KHB was prepared to examine the chloride dependence of both, FhTauT and HsTauT using acetate salts instead of chloride salts. Likewise, NaCl was replaced by choline chloride to examine the sodium requirement. Uptake experiments were performed as described above using 0.1 μM [^3H]taurine in sodium- and chloride-free modified KHB, respectively, mixed with increasing amounts of NaCl containing KHB thereby varying Na^+ and respectively Cl^- concentration from 0–120 mM. The inhibition experiments were performed in analogous manner with 0.1 μM [^3H]taurine and the logarithmically spaced concentrations of inhibitors.

Series [3] concerns the target T2, F. hepatica taurine transporter (FhTauT) (Fasciola hepatica, UniProt A0A2R4LGM2).
T2 sequence (A0A2R4LGM2 1-647): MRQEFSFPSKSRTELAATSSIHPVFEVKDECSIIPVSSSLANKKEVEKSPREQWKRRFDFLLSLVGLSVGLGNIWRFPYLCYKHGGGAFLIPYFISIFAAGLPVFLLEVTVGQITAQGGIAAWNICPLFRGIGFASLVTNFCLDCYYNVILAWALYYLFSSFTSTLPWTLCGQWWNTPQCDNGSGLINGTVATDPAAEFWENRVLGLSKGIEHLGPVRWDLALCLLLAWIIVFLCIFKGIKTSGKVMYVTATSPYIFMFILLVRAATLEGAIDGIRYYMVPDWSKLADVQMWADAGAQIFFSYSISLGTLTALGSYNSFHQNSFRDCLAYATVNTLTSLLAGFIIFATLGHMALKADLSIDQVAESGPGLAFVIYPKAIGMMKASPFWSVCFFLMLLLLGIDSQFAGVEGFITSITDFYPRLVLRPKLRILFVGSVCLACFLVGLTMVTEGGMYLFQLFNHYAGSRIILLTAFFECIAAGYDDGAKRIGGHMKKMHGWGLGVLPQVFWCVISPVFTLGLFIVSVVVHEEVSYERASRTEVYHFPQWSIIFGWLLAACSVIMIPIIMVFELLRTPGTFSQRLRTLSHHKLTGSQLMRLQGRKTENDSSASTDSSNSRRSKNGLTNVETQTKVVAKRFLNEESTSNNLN
Put plainly: cell-based. The following applies: for IC50: IC50 of unlabeled taurine for [3H]taurine uptake; for EC50: 0.1 μM [3H]taurine; for inhibition of the transporter (taurine uptake): inhibitors of GABA uptake or GABA degradation. On the procedure:
as §1, §2, §3

Substrate in series [4]: NCCS(=O)(=O)O
Put plainly: cells, lysate or membranes. The conditions noted are these: other: 10 min uptake, HEK293 cells; pH 7.3; 37.0 °C.

Where [5] appears, read: read-out: EC50 of Na+ for half-maximum stimulation of transport, sodium replaced with choline.
The mark [6] stands for this setting: HEK293, read-out: residual [3H]taurine uptake.
[7] abbreviates: read-out: EC50 of chloride for substrate uptake (apparent affinity), chloride replaced with acetate.
The mark [8] stands for this setting: read-out: EC50 of chloride for substrate uptake (apparent affinity), chloride replaced with acetate, listed as Cl^-.

Read-outs that look alike come from different tables or passages of the source.

A word on the IC50: it is the concentration needed to halve the response being measured. Usually EC50 stands for the concentration needed to bring the measured effect to its halfway point. Usually Km stands for the substrate concentration at which the rate is half of its maximum.

Turning to `NCCS(=O)(=O)O` [taurine, 2-aminoethanesulfonic acid], the “time all flukes alive and motile” value in series [1] (50 μM taurine alone) is on record as “at least 6 h”. Also, the survival of flukes result in series [1] (bile acids plus 50 μM taurine) is recorded as “about 80%”. Also, the IC50 turned out to be 0.0412 ± 0.0082 mM in series [2] (absence of GES); 0.0521 ± 0.0095 mM in series [2] (presence of 0.1 mM GES); 0.0989 ± 0.0201 mM in series [2] (presence of 0.3 mM GES); 0.0117 ± 0.0041 mM in series [3] (absence of GES); 0.0187 ± 0.0067 mM in series [3] (presence of 1 mM GES); 0.016 ± 0.0042 mM in series [3] (presence of 3 mM GES). For the same molecule, the “maximum velocity of uptake” value in series [2] ([3H]taurine, HEK293 cells) is reported as 971.0 ± 60.3 pmol*10^−6 cells*min^-1; in series [3] ([3H]taurine, HEK293 cells), 178 ± 2 pmol*10^−6 cells*min^-1. The “[3H]taurine accumulation relative to untransfected control cells” value in series [3] (transfected vs untransfected HEK293 cells) is recorded as “about 10 fold”.

Regarding `[Na+]` [Na^+], the EC50 in series [2] (setting [5]) was found to be 56.5 ± 7.1 mM; in series [3] (setting [5]) it was 51.4 ± 6 mM. In addition, the figures for the “Hill coefficient of sodium saturation curve” value in series [2] (sodium replaced with choline) and in series [3] (sodium replaced with choline) were 2.3±0.1 and 1.6±0.1, respectively.

As for `C=CC(N)CCC(=O)O` (stereo not drawn) [vigabatrin], in series [3], the “inhibition of the transporter (taurine uptake)” value is given as “failed to inhibit”.

As for `NC(N)=NCCS(=O)(=O)O` [GES, guanidinoethyl sulfonate], in series [1] (2 mM GES alone), the “time all flukes alive and motile” value is recorded as “at least 6 h”. For the same molecule, in series [1] (bile acids plus 50 μM taurine plus 2 mM GES), the survival of flukes was found to be 44%. For the same molecule, in series [2] (Dixon plot, parallel lines), the “mode of inhibition of taurine uptake” value is recorded as “competitive inhibition”. For the same molecule, the “mode of inhibition of taurine uptake” value in series [3] (Dixon plot, intersecting lines) is recorded as “non-competitive inhibitor”. Further, in series [3] (setting [6]), the remaining activity at 1000 µM was ~75% and the remaining activity at 3000 µM was ~40%. Further, the “affinity of F. hepatica transporter relative to human transporter” value in series [3] (comparison of residual uptake, Fig 6A vs 6C) is recorded as “about ten-fold lower”.

Consider `Cl` [chloride], for which the EC50 in series [2] (setting [7]) turned out to be 54.8 ± 6.9 mM; in series [2] (setting [8]), 55 ± 7 mM; in series [3] (setting [7]), 13.9 ± 3.1 mM; in series [3] (setting [8]), 14 ± 3 mM.

With `Cc1ccsc1C(=CCCN1CCC[C@@H](C(=O)O)C1)c1sccc1C` [tiagabine], the “inhibition of the transporter (taurine uptake)” value in series [3] was “failed to inhibit”.

B1: human taurine transporter (HsTauT) (Homo sapiens) (protein)
chain: MATKEKLQCLKDFHKDILKPSPGKSPGTRPEDEAEGKPPQREKWSSKIDFVLSVAGGFVGLGNVWRFPYLCYKNGGGAFLIPYFIFLFGSGLPVFFLEIIIGQYTSEGGITCWEKICPLFSGIGYASVVIVSLLNVYYIVILAWATYYLFQSFQKELPWAHCNHSWNTPHCMEDTMRKNKSVWITISSTNFTSPVIEFWERNVLSLSPGIDHPGSLKWDLALCLLLVWLVCFFCIWKGVRSTGKVVYFTATFPFAMLLVLLVRGLTLPGAGAGIKFYLYPDITRLEDPQVWIDAGTQIFFSYAICLGAMTSLGSYNKYKYNSYRDCMLLGCLNSGTSFVSGFAIFSILGFMAQEQGVDIADVAESGPGLAFIAYPKAVTMMPLPTFWSILFFIMLLLLGLDSQFVEVEGQITSLVDLYPSFLRKGYRREIFIAFVCSISYLLGLTMVTEGGMYVFQLFDYYAASGVCLLWVAFFECFVIAWIYGGDNLYDGIEDMIGYRPGPWMKYSWAVITPVLCVGCFIFSLVKYVPLTYNKTYVYPNWAIGLGWSLALSSMLCVPLVIVIRLCQTEGPFLVRVKYLLTPREPNRWAVEREGATPYNSRTVMNGALVKPTHIIVETMM
With B1, in series [4], the Km was determined as 41.0 ± 10.4 µM.

B2: F. hepatica taurine transporter (FhTauT) (Fasciola hepatica) (protein)
chain: MRQEFSFPSKSRTELAATSSIHPVFEVKDECSIIPVSSSLANKKEVEKSPREQWKRRFDFLLSLVGLSVGLGNIWRFPYLCYKHGGGAFLIPYFISIFAAGLPVFLLEVTVGQITAQGGIAAWNICPLFRGIGFASLVTNFCLDCYYNVILAWALYYLFSSFTSTLPWTLCGQWWNTPQCDNGSGLINGTVATDPAAEFWENRVLGLSKGIEHLGPVRWDLALCLLLAWIIVFLCIFKGIKTSGKVMYVTATSPYIFMFILLVRAATLEGAIDGIRYYMVPDWSKLADVQMWADAGAQIFFSYSISLGTLTALGSYNSFHQNSFRDCLAYATVNTLTSLLAGFIIFATLGHMALKADLSIDQVAESGPGLAFVIYPKAIGMMKASPFWSVCFFLMLLLLGIDSQFAGVEGFITSITDFYPRLVLRPKLRILFVGSVCLACFLVGLTMVTEGGMYLFQLFNHYAGSRIILLTAFFECIAAGYDDGAKRIGGHMKKMHGWGLGVLPQVFWCVISPVFTLGLFIVSVVVHEEVSYERASRTEVYHFPQWSIIFGWLLAACSVIMIPIIMVFELLRTPGTFSQRLRTLSHHKLTGSQLMRLQGRKTENDSSASTDSSNSRRSKNGLTNVETQTKVVAKRFLNEESTSNNLN
Consider B2, for which, in series [4], the Km worked out at 12.0 ± 0.5 µM.
